Measured values published in PMC10287555, “Camonsertib in DNA damage response-deficient advanced solid tumors: phase 1 trial results” (Nature Medicine, 2023).
Read-outs that look alike come from different tables or passages of the source.

Columns and labels:
[1] = Food effect on PK (module 1c); assay type: in vivo, human
Source text: TRESR (NCT04497116) is a modular, phase 1/2a, first-in-human, multicenter, open-label, non-randomized, dose-escalation, dose-expansion study of camonsertib, administered orally as a single agent or in combination with talazoparib or gemcitabine in patients with advanced solid tumors. The results reported here focus on module 1, which includes the dose escalation of camonsertib monotherapy, and is further divided into three submodules: module 1a (M1a), 5/2 dosing schedule; module 1b (M1b), 3/4 dosing schedule; and module 1c (M1c), food effect evaluation. For the 12 patients enrolled in M1c, camonsertib was administered with a high-fat, high-calorie meal on day −3 and in the fasted state on day 1, to evaluate the effect of food on the PK of camonsertib. After the food effect portion of the study, patients continued camonsertib monotherapy on either the 5/2 or 3/4 schedule and were analyzed for safety and efficacy along with the patients in M1a and M1b. The study was conducted in accordance with the Declaration of Helsinki and Council for International Organizations of Medical Sciences International Ethical Guidelines, applicable International Conference on Harmonization Good Clinical Practice Guidelines and applicable laws and regulations. All patients provided written informed consent to adhere to the clinical protocol and provide serial blood samples and tumor tissue. The protocol was approved by the institutional review board or ethics committee at each participating institution.
(§1) The plasma levels from cycle 1, day 1 of camonsertib were quantified using a validated liquid chromatography tandem–mass spectrometry (LC–MS/MS) method. […] All PK parameters were calculated using actual sampling times. Mean plasma concentration time profiles at given dose levels and regimens were plotted on semi-logarithmic plots using nominal times.

[2] = Plasma pharmacokinetics, cycle 1 day 1 (LC–MS/MS, non-compartmental analysis); assay type: in vivo, human; conditions: for AUC(0-t) / Cmax / Tmax / AUC(0-inf) / half-life: human, plasma, oral; for Cmax: read-out: Cmax, geometric mean; for Tmax: read-out: Tmax, median; for AUC(0-inf): read-out: AUC0-INF, geometric mean
Method: as §1

[3] = high fat/high calorie meal vs fasted, 100–160 mg QD
[4] = Dose 5 mg, Tau 24 hr, cycle 1 day 1
[5] = Dose 10 mg, Tau 24 hr, cycle 1 day 1
[6] = Dose 20 mg, Tau 24 hr, cycle 1 day 1
[7] = Dose 40 mg, Tau 12 hr, cycle 1 day 1
[8] = Dose 40 mg, Tau 24 hr, cycle 1 day 1
[9] = Dose 60 mg, Tau 12 hr, cycle 1 day 1
[10] = Dose 80 mg, Tau 12 hr, cycle 1 day 1
[11] = Dose 80 mg, Tau 24 hr, cycle 1 day 1
[12] = Dose 100 mg, Tau 24 hr, cycle 1 day 1
[13] = Dose 120 mg, Tau 24 hr, cycle 1 day 1
[14] = Dose 160 mg, Tau 24 hr, cycle 1 day 1
[15] = Dose 200 mg, Tau 24 hr, cycle 1 day 1
[16] = 10 mg, Tau 24 hr, cycle 1 day 1
[17] = 20 mg, Tau 24 hr, cycle 1 day 1
[18] = 40 mg, Tau 12 hr, cycle 1 day 1
[19] = 40 mg, Tau 24 hr, cycle 1 day 1
[20] = 60 mg, Tau 12 hr, cycle 1 day 1
[21] = 80 mg, Tau 12 hr, cycle 1 day 1
[22] = 80 mg, Tau 24 hr, cycle 1 day 1
[23] = 100 mg, Tau 24 hr, cycle 1 day 1
[24] = 120 mg, Tau 24 hr, cycle 1 day 1
[25] = 160 mg, Tau 24 hr, cycle 1 day 1
[26] = 200 mg, Tau 24 hr, cycle 1 day 1

With C[C@@H]1COCCN1c1cc([C@]2(O)C[C@H]3CC[C@@H](C2)O3)c2cnn(-c3cc[nH]n3)c2n1 [camonsertib] the “Food effect on AUC” value [1, 3] was “no change in AUC”, the “Food effect on Cmax” value [1, 3] was “reduction” and the “Food effect on Tmax” value [1, 3] was “delay in Tmax”. The “Effect of a high-fat, high-calorie meal on PK” value ([1]; twelve patients, module 1c) was “modest PK changes”, the “AUC0-t/dose, geometric mean” value [2, 4] was 0.427 µg·h/mL/mg and the “Cmax/dose, geometric mean” value [2, 4] was 0.098 µg/mL/mg. For the same compound, the “AUC0-t/dose, geometric mean” value [2, 5] was 0.567 µg·h/mL/mg, the “Cmax/dose, geometric mean” value [2, 5] was 0.105 µg/mL/mg and the “AUC0-t/dose, geometric mean” value [2, 6] was 0.239 µg·h/mL/mg. For the same compound, the “Cmax/dose, geometric mean” value [2, 6] was 0.04 µg/mL/mg, the “AUC0-t/dose, geometric mean” value [2, 7] was 1.003 µg·h/mL/mg and the “Cmax/dose, geometric mean” value [2, 7] was 0.095 µg/mL/mg. The “AUC0-t/dose, geometric mean” value [2, 8] was 0.329 µg·h/mL/mg, the “Cmax/dose, geometric mean” value [2, 8] was 0.029 µg/mL/mg and the “AUC0-t/dose, geometric mean” value [2, 9] was 0.444 µg·h/mL/mg. For the same compound, the “Cmax/dose, geometric mean” value [2, 9] was 0.055 µg/mL/mg, the “AUC0-t/dose, geometric mean” value [2, 10] was 0.527 µg·h/mL/mg and the “Cmax/dose, geometric mean” value [2, 10] was 0.038 µg/mL/mg. The “AUC0-t/dose, geometric mean” value [2, 11] was 0.254 µg·h/mL/mg, the “Cmax/dose, geometric mean” value [2, 11] was 0.071 µg/mL/mg and the “AUC0-t/dose, geometric mean” value [2, 12] was 0.3 µg·h/mL/mg. The “Cmax/dose, geometric mean” value [2, 12] was 0.052 µg/mL/mg, the “AUC0-t/dose, geometric mean” value [2, 13] was 0.246 µg·h/mL/mg and the “Cmax/dose, geometric mean” value [2, 13] was 0.044 µg/mL/mg. The “AUC0-t/dose, geometric mean” value [2, 14] was 0.256 µg·h/mL/mg, the “Cmax/dose, geometric mean” value [2, 14] was 0.046 µg/mL/mg and the “AUC0-t/dose, geometric mean” value [2, 15] was 0.273 µg·h/mL/mg. For the same compound, the “Cmax/dose, geometric mean” value [2, 15] was 0.047 µg/mL/mg, the Accumulation ([2]; after repeated dosing) was “no accumulation” and the “Increases in Cmax and AUC with dose” value ([2]; dose range 5–200 mg QD) was “linear”. It also gave an AUC(0-t) ([2]; 5 mg, Tau 24 hr, cycle 1 day 1, read-out: AUC0-12, geometric mean) of 1800 ng·h/mL, an AUC(0-t) ([2]; 5 mg, Tau 24 hr, cycle 1 day 1, read-out: AUC0-t, geometric mean) of 2100 ng·h/mL and a Cmax ([2]; 5 mg, Tau 24 hr, cycle 1 day 1) of 500 ng/mL. For the same compound, the Tmax ([2]; 5 mg, Tau 24 hr, cycle 1 day 1) was 1.17 h, the AUC(0-t) ([2]; 10 mg, Tau 24 hr, cycle 1 day 1, read-out: AUC0-12, geometric mean) was 4400 ng·h/mL and the AUC(0-t) ([2]; 10 mg, Tau 24 hr, cycle 1 day 1, read-out: AUC0-t, geometric mean) was 5700 ng·h/mL. For the same compound, the Cmax [2, 16] was 1100 ng/mL, the Tmax [2, 16] was 1 h and the AUC(0-t) ([2]; 20 mg, Tau 24 hr, cycle 1 day 1, read-out: AUC0-12, geometric mean) was 2800 ng·h/mL. The AUC(0-t) ([2]; 20 mg, Tau 24 hr, cycle 1 day 1, read-out: AUC0-t, geometric mean) was 4800 ng·h/mL, the Cmax [2, 17] was 800 ng/mL and the Tmax [2, 17] was 10.7 h. For the same compound, the AUC(0-t) ([2]; 40 mg, Tau 12 hr, cycle 1 day 1, read-out: AUC0-12, geometric mean) was 23400 ng·h/mL, the AUC(0-t) ([2]; 40 mg, Tau 12 hr, cycle 1 day 1, read-out: AUC0-t, geometric mean) was 40100 ng·h/mL and the Cmax [2, 18] was 3800 ng/mL. The Tmax [2, 18] was 1.96 h, the AUC(0-t) ([2]; 40 mg, Tau 24 hr, cycle 1 day 1, read-out: AUC0-12, geometric mean) was 4700 ng·h/mL and the AUC(0-t) ([2]; 40 mg, Tau 24 hr, cycle 1 day 1, read-out: AUC0-t, geometric mean) was 13200 ng·h/mL. For the same compound, the Cmax [2, 19] was 1200 ng/mL, the Tmax [2, 19] was 22.1 h and the AUC(0-t) ([2]; 60 mg, Tau 12 hr, cycle 1 day 1, read-out: AUC0-12, geometric mean) was 16900 ng·h/mL. The AUC(0-t) ([2]; 60 mg, Tau 12 hr, cycle 1 day 1, read-out: AUC0-t, geometric mean) was 26600 ng·h/mL, the Cmax [2, 20] was 3300 ng/mL and the Tmax [2, 20] was 1.55 h. It also gave an AUC(0-t) ([2]; 80 mg, Tau 12 hr, cycle 1 day 1, read-out: AUC0-12, geometric mean) of 21400 ng·h/mL, an AUC(0-t) ([2]; 80 mg, Tau 12 hr, cycle 1 day 1, read-out: AUC0-t, geometric mean) of 42100 ng·h/mL and a Cmax [2, 21] of 3000 ng/mL. The Tmax [2, 21] was 2.17 h, the AUC(0-t) ([2]; 80 mg, Tau 24 hr, cycle 1 day 1, read-out: AUC0-12, geometric mean) was 18700 ng·h/mL and the AUC(0-t) ([2]; 80 mg, Tau 24 hr, cycle 1 day 1, read-out: AUC0-t, geometric mean) was 20300 ng·h/mL. For the same compound, the Cmax [2, 22] was 5700 ng/mL, the Tmax [2, 22] was 1 h and the AUC(0-t) ([2]; 100 mg, Tau 24 hr, cycle 1 day 1, read-out: AUC0-12, geometric mean) was 24800 ng·h/mL. The AUC(0-t) ([2]; 100 mg, Tau 24 hr, cycle 1 day 1, read-out: AUC0-t, geometric mean) was 30200 ng·h/mL, the Cmax [2, 23] was 5200 ng/mL and the Tmax [2, 23] was 1.54 h. The AUC(0-t) ([2]; 120 mg, Tau 24 hr, cycle 1 day 1, read-out: AUC0-12, geometric mean) was 23900 ng·h/mL, the AUC(0-t) ([2]; 120 mg, Tau 24 hr, cycle 1 day 1, read-out: AUC0-t, geometric mean) was 29500 ng·h/mL and the Cmax [2, 24] was 5300 ng/mL. The Tmax [2, 24] was 2.03 h, the AUC(0-t) ([2]; 160 mg, Tau 24 hr, cycle 1 day 1, read-out: AUC0-12, geometric mean) was 34800 ng·h/mL and the AUC(0-t) ([2]; 160 mg, Tau 24 hr, cycle 1 day 1, read-out: AUC0-t, geometric mean) was 41000 ng·h/mL. The Cmax [2, 25] was 7300 ng/mL, the Tmax [2, 25] was 1.21 h and the AUC(0-t) ([2]; 200 mg, Tau 24 hr, cycle 1 day 1, read-out: AUC0-12, geometric mean) was 44700 ng·h/mL. It also gave an AUC(0-t) ([2]; 200 mg, Tau 24 hr, cycle 1 day 1, read-out: AUC0-t, geometric mean) of 54600 ng·h/mL, a Cmax [2, 26] of 9500 ng/mL and a Tmax [2, 26] of 1 h. It also gave an AUC(0-inf) [2, 4] of 2300 ng·h/mL, a half-life ([2]; Dose 5 mg, Tau 24 hr, cycle 1 day 1, read-out: Half-life, geometric mean (converted)) of 5.87 h and an AUC(0-inf) [2, 5] of 6600 ng·h/mL. For the same compound, the half-life ([2]; Dose 10 mg, Tau 24 hr, cycle 1 day 1, read-out: Half-life, geometric mean (converted)) was 8.5 h, the AUC(0-inf) [2, 6] was 3100 ng·h/mL and the half-life ([2]; Dose 20 mg, Tau 24 hr, cycle 1 day 1, read-out: Half-life, geometric mean (converted)) was 4.18 h. The AUC(0-inf) [2, 7] was 153000 ng·h/mL, the AUC(0-inf) [2, 9] was 66100 ng·h/mL and the AUC(0-inf) [2, 11] was 21000 ng·h/mL. For the same compound, the half-life ([2]; Dose 80 mg, Tau 24 hr, cycle 1 day 1, read-out: Half-life, geometric mean (converted)) was 4.08 h, the AUC(0-inf) [2, 12] was 32300 ng·h/mL and the half-life ([2]; Dose 100 mg, Tau 24 hr, cycle 1 day 1, read-out: Half-life, geometric mean (converted)) was 5.67 h. The AUC(0-inf) [2, 13] was 31300 ng·h/mL, the half-life ([2]; Dose 120 mg, Tau 24 hr, cycle 1 day 1, read-out: Half-life, geometric mean (converted)) was 6.21 h and the AUC(0-inf) [2, 14] was 45900 ng·h/mL. It also gave a half-life ([2]; Dose 160 mg, Tau 24 hr, cycle 1 day 1, read-out: Half-life, geometric mean (converted)) of 5.97 h, an AUC(0-inf) [2, 15] of 58900 ng·h/mL and a half-life ([2]; Dose 200 mg, Tau 24 hr, cycle 1 day 1, read-out: Half-life, geometric mean (converted)) of 6.31 h. For the same compound, the half-life ([2]; across all QD dose levels, read-out: Median half-life (converted)) was 5.8 h, the “Doses at which plasma exposures achieved predicted efficacious exposures” value ([2]; in vivo) was greater than 100 mg QD and the PK variability ([2]; intra-patient and inter-patient) was “low intra-patient and inter-patient variability”.
